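Each compound was tested at five concentrations against cells in 96-well plates for 48 hours. Abbreviation: GI50, concentration required for 50% inhibition of growth. At the TGI there is no net growth.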
Key:
Assay in all cases: inhibition of tumour cell growth, NCI panel, 48 h
786-0 renal = system: 786-0 renal
A498 renal = system: A498 renal
A549 NSCLC = system: A549 NSCLC
ACHN renal = system: ACHN renal
BT-549 breast = system: BT-549 breast
CAKI-1 renal = system: CAKI-1 renal
CCRF-CEM leukemia = system: CCRF-CEM leukemia
COLO 205 colon = system: COLO 205 colon
DU-145 prostate = system: DU-145 prostate
EKVX NSCLC = system: EKVX NSCLC
HCC-2998 colon = system: HCC-2998 colon
HCT-116 colon = system: HCT-116 colon
HCT-15 colon = system: HCT-15 colon
HL-60(TB) leukemia = system: HL-60(TB) leukemia
HOP-62 NSCLC = system: HOP-62 NSCLC
HOP-92 NSCLC = system: HOP-92 NSCLC
HS 578T breast = system: HS 578T breast
HT29 colon = system: HT29 colon
IGROV1 ovarian = system: IGROV1 ovarian
K-562 leukemia = system: K-562 leukemia
KM12 colon = system: KM12 colon
LOX IMVI melanoma = system: LOX IMVI melanoma
M14 melanoma = system: M14 melanoma
MALME-3M melanoma = system: MALME-3M melanoma
MCF7 breast = system: MCF7 breast
MDA-MB-231 breast = system: MDA-MB-231 breast
MDA-MB-435 = system: MDA-MB-435
MDA-N = system: MDA-N
MOLT-4 leukemia = system: MOLT-4 leukemia
NCI-H226 lung = system: NCI-H226 lung
NCI-H23 lung = system: NCI-H23 lung
NCI-H460 lung = system: NCI-H460 lung
NCI-H522 lung = system: NCI-H522 lung
NCI/ADR-RES ovarian = system: NCI/ADR-RES ovarian
OVCAR-3 ovarian = system: OVCAR-3 ovarian
OVCAR-4 ovarian = system: OVCAR-4 ovarian
OVCAR-5 ovarian = system: OVCAR-5 ovarian
OVCAR-8 ovarian = system: OVCAR-8 ovarian
PC-3 prostate = system: PC-3 prostate
RPMI-8226 leukemia = system: RPMI-8226 leukemia
RXF 393 renal = system: RXF 393 renal
SF-268 CNS = system: SF-268 CNS
SF-295 CNS = system: SF-295 CNS
SF-539 CNS = system: SF-539 CNS
SK-MEL-2 melanoma = system: SK-MEL-2 melanoma
SK-MEL-28 melanoma = system: SK-MEL-28 melanoma
SK-MEL-5 melanoma = system: SK-MEL-5 melanoma
SK-OV-3 ovarian = system: SK-OV-3 ovarian
SN12C renal = system: SN12C renal
SNB-19 CNS = system: SNB-19 CNS
SNB-75 CNS = system: SNB-75 CNS
SR leukemia = system: SR leukemia
SW-620 colon = system: SW-620 colon
T-47D breast = system: T-47D breast
TK-10 renal = system: TK-10 renal
U251 CNS = system: U251 CNS
UACC-257 melanoma = system: UACC-257 melanoma
UACC-62 melanoma = system: UACC-62 melanoma
UO-31 renal = system: UO-31 renal

`CC(C(=O)O)c1ccc(-c2ccccc2)c(F)c1` (centres undefined) gave a TGI (786-0 renal) greater than 100 µM, a TGI (A498 renal) greater than 100 µM and a TGI (A549 NSCLC) greater than 100 µM. For the same molecule, the TGI (ACHN renal) was greater than 100 µM, the TGI (BT-549 breast) was greater than 100 µM and the TGI (CAKI-1 renal) was greater than 100 µM. For the same molecule, the TGI (CCRF-CEM leukemia) was greater than 100 µM, the TGI (COLO 205 colon) was greater than 100 µM and the TGI (DU-145 prostate) was greater than 100 µM. The TGI (EKVX NSCLC) was greater than 100 µM, the TGI (HCC-2998 colon) was greater than 100 µM and the TGI (HCT-116 colon) was greater than 100 µM. The TGI (HCT-15 colon) was greater than 100 µM, the TGI (HL-60(TB) leukemia) was greater than 100 µM and the TGI (HOP-62 NSCLC) was greater than 100 µM. It also gave a GI50 (HOP-92 NSCLC) of 47.6 µM, a TGI (HOP-92 NSCLC) greater than 100 µM and a TGI (HS 578T breast) greater than 100 µM. It also gave a TGI (HT29 colon) greater than 100 µM, a TGI (IGROV1 ovarian) greater than 100 µM and a TGI (K-562 leukemia) greater than 100 µM. For the same molecule, the TGI (KM12 colon) was greater than 100 µM, the TGI (LOX IMVI melanoma) was greater than 100 µM and the TGI (M14 melanoma) was greater than 100 µM. The TGI (MALME-3M melanoma) was greater than 100 µM, the TGI (MCF7 breast) was greater than 100 µM and the TGI (MDA-MB-231 breast) was greater than 100 µM. For the same molecule, the TGI (MDA-MB-435) was greater than 100 µM, the TGI (MDA-N) was greater than 100 µM and the TGI (MOLT-4 leukemia) was greater than 100 µM. The TGI (NCI-H226 lung) was greater than 100 µM, the TGI (NCI-H23 lung) was greater than 100 µM and the TGI (NCI-H460 lung) was greater than 100 µM. For the same molecule, the TGI (NCI-H522 lung) was greater than 100 µM, the TGI (NCI/ADR-RES ovarian) was greater than 100 µM and the TGI (OVCAR-3 ovarian) was greater than 100 µM. It also gave a TGI (OVCAR-4 ovarian) greater than 100 µM, a TGI (OVCAR-5 ovarian) greater than 100 µM and a TGI (OVCAR-8 ovarian) greater than 100 µM. The TGI (PC-3 prostate) was greater than 100 µM, the TGI (RPMI-8226 leukemia) was greater than 100 µM and the TGI (RXF 393 renal) was greater than 100 µM. For the same molecule, the TGI (SF-268 CNS) was greater than 100 µM, the TGI (SF-295 CNS) was greater than 100 µM and the TGI (SF-539 CNS) was greater than 100 µM. For the same molecule, the TGI (SK-MEL-2 melanoma) was greater than 100 µM, the TGI (SK-MEL-28 melanoma) was greater than 100 µM and the TGI (SK-MEL-5 melanoma) was greater than 100 µM. For the same molecule, the TGI (SK-OV-3 ovarian) was greater than 100 µM, the TGI (SN12C renal) was greater than 100 µM and the TGI (SNB-19 CNS) was greater than 100 µM. For the same molecule, the TGI (SNB-75 CNS) was greater than 100 µM, the TGI (SR leukemia) was greater than 100 µM and the TGI (SW-620 colon) was greater than 100 µM. The TGI (T-47D breast) was greater than 100 µM, the TGI (TK-10 renal) was greater than 100 µM and the TGI (U251 CNS) was greater than 100 µM. For the same molecule, the TGI (UACC-257 melanoma) was greater than 100 µM, the TGI (UACC-62 melanoma) was greater than 100 µM and the TGI (UO-31 renal) was greater than 100 µM.
With `Cc1ccc(NC2=N/C(=C/c3ccco3)C(Cl)=N2)cc1` the TGI (786-0 renal) was greater than 100 µM, the TGI (A498 renal) was greater than 100 µM and the TGI (A549 NSCLC) was greater than 100 µM. It also gave a TGI (ACHN renal) greater than 100 µM, a TGI (BT-549 breast) greater than 100 µM and a TGI (CAKI-1 renal) greater than 100 µM. The TGI (CCRF-CEM leukemia) was greater than 100 µM, the TGI (COLO 205 colon) was greater than 100 µM and the TGI (DU-145 prostate) was greater than 100 µM. For the same molecule, the TGI (EKVX NSCLC) was greater than 100 µM, the TGI (HCC-2998 colon) was greater than 49.7 µM and the TGI (HCT-116 colon) was greater than 100 µM. For the same molecule, the TGI (HCT-15 colon) was greater than 100 µM, the TGI (HL-60(TB) leukemia) was greater than 100 µM and the TGI (HOP-62 NSCLC) was greater than 100 µM. It also gave a TGI (HOP-92 NSCLC) greater than 100 µM, a TGI (HS 578T breast) greater than 100 µM and a TGI (HT29 colon) greater than 100 µM. The TGI (IGROV1 ovarian) was greater than 100 µM, the TGI (K-562 leukemia) was greater than 100 µM and the TGI (KM12 colon) was greater than 100 µM. It also gave a TGI (LOX IMVI melanoma) greater than 100 µM, a TGI (M14 melanoma) greater than 100 µM and a TGI (MALME-3M melanoma) greater than 100 µM. For the same molecule, the TGI (MCF7 breast) was greater than 100 µM, the TGI (MDA-MB-231 breast) was greater than 100 µM and the TGI (MDA-MB-435) was greater than 100 µM. The TGI (MDA-N) was greater than 100 µM, the TGI (MOLT-4 leukemia) was greater than 100 µM and the TGI (NCI-H226 lung) was greater than 100 µM. For the same molecule, the TGI (NCI-H23 lung) was greater than 100 µM, the TGI (NCI-H460 lung) was greater than 100 µM and the TGI (NCI-H522 lung) was greater than 100 µM. For the same molecule, the TGI (NCI/ADR-RES ovarian) was greater than 100 µM, the TGI (OVCAR-3 ovarian) was greater than 100 µM and the TGI (OVCAR-4 ovarian) was greater than 100 µM. It also gave a TGI (OVCAR-5 ovarian) greater than 100 µM, a TGI (OVCAR-8 ovarian) greater than 100 µM and a TGI (PC-3 prostate) greater than 100 µM. For the same molecule, the TGI (RPMI-8226 leukemia) was greater than 100 µM, the TGI (RXF 393 renal) was greater than 100 µM and the TGI (SF-268 CNS) was greater than 100 µM. The TGI (SF-295 CNS) was greater than 100 µM, the TGI (SF-539 CNS) was greater than 100 µM and the TGI (SK-MEL-2 melanoma) was greater than 100 µM. For the same molecule, the TGI (SK-MEL-28 melanoma) was greater than 100 µM, the TGI (SK-MEL-5 melanoma) was greater than 100 µM and the TGI (SK-OV-3 ovarian) was greater than 100 µM. The TGI (SN12C renal) was greater than 100 µM, the TGI (SNB-19 CNS) was greater than 100 µM and the TGI (SNB-75 CNS) was greater than 100 µM. It also gave a TGI (SR leukemia) greater than 100 µM, a TGI (SW-620 colon) greater than 100 µM and a TGI (T-47D breast) greater than 100 µM. It also gave a TGI (TK-10 renal) greater than 100 µM, a TGI (U251 CNS) greater than 100 µM and a TGI (UACC-257 melanoma) greater than 100 µM. For the same molecule, the TGI (UACC-62 melanoma) was greater than 100 µM and the TGI (UO-31 renal) was greater than 100 µM.

Reference: PubChem BioAssay (NCI)
